Source: patent US20240293326A1, “CONTROLLED RELEASE FORMULATIONS FOR THE TREATMENT OF MALARIA” (KARICI DIAGNOSTICS INC., priority 2018, published 2024)

Assays:
[1] = Dissolution assay of tablets (release kinetics, SGF 2 h then SIF); assay type: physicochemical
Method: Dissolution assays of formulated monolithic tablets were done in simulated gastric fluid (SGF, pH 1.5) for 2 h and continued in simulated intestinal fluid (SIF, pH 6.8) as referred by USP method 40 (USP, 2017a).
The Pf (Pf, MD/Pf or CMS-Pf) release kinetics from different formulations (Pf, MD/Pf and CMS-Pf monolithic tablet dosage form) were recorded at 100 rpm and 37° C. using a Distek dissolution system 2100A (Betatek Inc., Markham, ON, Canada). At predetermined intervals, an established volume of samples (1 mL) was withdrawn from dissolution media, filtered (0.45 μm) and the released Pf was quantified by UV measurement at 280 nm.
CMS-Pf complexes were prepared as detailed above in Example 1. Briefly, CMS was dispersed at 8.5% in water. After homogenization and obtaining a homogenous suspension, an amount of 50 mL of CMS suspension was slowly added in 450 ml of Pf 21.5% previously dissolved in ethanol (60%). Similar operation was carried out for the CMS and for CMC (high viscosity) with a degree of substitution of 0.8. The final ratio Pf/carboxyl polymer (w/w) was respectively about of 96/4. The solutions were maintained under agitation at room temperature until spray-drying to obtain powders using the following parameters: 1) inlet temperature 150° C.; 2) outlet temperature 100° C.; 3) spray flow 500 L/h, and 4) aspirator setting at 38 m^3/h. During the drying process, the polymeric excipient/Pf suspension was continuously gently stirred to prevent sedimentation. The resulting powder was used to prepare monolithic tablets (12.5 mm diameter, 3.0 mm thickness) containing 400 mg of Pf by direct compaction. The kinetics of the drug release were recorded using the Distek™ dissolution (100 rpm) and the detection of Pf was monitored at 280 nm, first in a dissolution medium made of 1 L of SGF (pH 1.5) during 2 h. Then, the tablets were transferred in 1 L of SIF (pH 7.2) at 37° C.) (USP 32 method).
For each tablet, the dissolution was started in 1 L of SGF (pH 1.5) for 2h and followed in 1 L of SIF (pH 7.2) at 37° C., according to USP 32. The drug release kinetics were recorded using a Distek™ dissolution 2100A paddle system at 100 rpm.
The quantification of Pf was carried out at 280 nm, whereas the dosage of artemisinin was realized by spectrophotometry at 734 nm after filtration and dissolving artemisinin in the acetone/water (ratio 40:60) solvent containing ABTS (2,2′-azino-bis[3-ethylbenzothiazoline-6-sulphonate]).
Dissolution assay was done first in simulated gastric fluid (SGF, pH 1.5) for 2 h and then in simulated intestinal fluid (SIF, pH 6.8) as referred by USP method 40 (2017a). Release kinetics from different formulations were followed at 100 rpm and 37° C. using a Distek dissolution system 2100A (Betatek Inc., Markham, ON, Canada) with a Distek TCS 0200 (North Brunswick, NJ, USA). At predetermined intervals (0.5, 1, 2, 4, 6, 8 and10 h), released Pf and Arte were quantified using the appropriate method (described above).
For Pf dosage, a volume (5 mL) was withdrawn from dissolution media, properly filtered (0.45 μm) and diluted before absorbance measurement at 280 nm. To quantify released Arte, the insoluble precipitate was recuperated, washed several times to remove all Pf residues and quantified as previously described.
Dissolution assays was followed for each tablet first in simulated gastric fluid (SGF, pH 1.5) for 2 h and then continued in simulated intestinal fluid (SIF, pH 6.8) as referred by USP method 40 (USP, 2017c). Release kinetics from both formulation types (containing CMP-Pf or pCMC-Pf) were followed using a Distek dissolution system 2100A (Betatek Inc., Markham, ON, Canada) with a Distek TCS 0200 (North Brunswick, NJ, USA) at 100 rpm and 37° C. At predetermined intervals (0.5, 1, 2, 4, 6, 8, 10 and 12 h), released Pf and Arte from tablets were quantified by absorbancy at 280 nm (for Pf) and at 734 nm (for Arte, using ABTS•+ radical as probe reagent). […]

[2] = In vitro Arte and Pf interaction / stability in SGF (FTIR, NMR, antioxidant capacity); assay type: physicochemical; conditions: SGF pH 1.5, 37° C., 2 h, one agent in the presence of the other
Method: Since both bioactive agents, Art and Pf will be used in a combination therapy in the same dosage form, there is a risk of molecular interactions to be considered. […] These interactions could also cause a moderate loss of activity due to the partial degradation of the endoperoxide bridge of artemisinin. […] After incubation, Arte was separated from Pf by decantation, washed and dried before FTIR and RMN analyses; whereas the Pf solution (in presence or not of Arte) was filtered and the antioxidant capacity was evaluated as previously described in the section of antioxidant properties. In vitro interaction of Arte with CMC-Pf was evaluated in SGF. Arte and CMC-Pf were incubated in SGF (pH 1.5, at 37° C.) separately or one in the presence of each other (FIG. 31).

[3] = monolithic tablets with CMC-Pf or pCMC-Pf, Example 6

Structure (SMILES): C[C@@H]1CC[C@H]2[C@@H](C)C(=O)O[C@@H]3O[C@@]4(C)CC[C@@H]1[C@]32OO4 [Artemisinin]
- Time to completed release of Artemisinin ([1]; bi-layer tablet, Artemisinin 100 mg + Explotab layer, Example 3): 60 min
- Art released after 2 h in SGF ([1]; monolithic tablet, 400 mg CMC/Pf + 100 mg artemisinin, Example 4): about 45%
- Time to complete release of Arte ([1]; monolithic tablet, in SIF, Example 5): 8 h
- Time to complete release of Art ([1]; monolithic tablet, Example 4): 8 h
- Arte released after 2 h in SGF ([1]; monolithic tablet, Example 5): about 51%
- Arte released after 2 h in SGF [1, 3]: about 51%
- Time to complete release of Arte [1, 3]: 8 h
- Degradation in SGF (FTIR, 1H NMR) ([2]; listed as Arte): No degradation
- Degradation in SGF (FTIR, 1H NMR) ([2]; listed as artemisinin): no degradation
